Values of other authors, collected in patent publication US20090208616A1, “INTERVENTION TECHNIQUES FOR REDUCING CARCASS CONTAMINATION” (priority 2000, published 2009).
Read-outs that look alike come from different tables or passages of the source.

System: Giardia Cysts

NCl [Chloramine]
CT value for 0.5-log inactivation of Giardia cysts by chloramine (pH range 6 to 9, 5 ° C.): 365 mg/L-min
CT value for 1-log inactivation of Giardia cysts by chloramine (pH range 6 to 9, 5 ° C.): 735 mg/L-min
CT value for 1.5-log inactivation of Giardia cysts by chloramine (pH range 6 to 9, 5 ° C.): 1100 mg/L-min
CT value for 2-log inactivation of Giardia cysts by chloramine (pH range 6 to 9, 5 ° C.): 1470 mg/L-min
CT value for 2.5-log inactivation of Giardia cysts by chloramine (pH range 6 to 9, 5 ° C.): 1830 mg/L-min
CT value for 3-log inactivation of Giardia cysts by chloramine (pH range 6 to 9, 5 ° C.): 2200 mg/L-min
CT value for 0.5-log inactivation of Giardia cysts by chloramine (pH range 6 to 9, 10 ° C.): 310 mg/L-min
CT value for 1-log inactivation of Giardia cysts by chloramine (pH range 6 to 9, 10 ° C.): 615 mg/L-min
CT value for 1.5-log inactivation of Giardia cysts by chloramine (pH range 6 to 9, 10 ° C.): 930 mg/L-min
CT value for 2-log inactivation of Giardia cysts by chloramine (pH range 6 to 9, 10 ° C.): 1230 mg/L-min
CT value for 2.5-log inactivation of Giardia cysts by chloramine (pH range 6 to 9, 10 ° C.): 1540 mg/L-min
CT value for 3-log inactivation of Giardia cysts by chloramine (pH range 6 to 9, 10 ° C.): 1850 mg/L-min
CT value for 0.5-log inactivation of Giardia cysts by chloramine (pH range 6 to 9, 15 ° C.): 250 mg/L-min
CT value for 1-log inactivation of Giardia cysts by chloramine (pH range 6 to 9, 15 ° C.): 500 mg/L-min
CT value for 1.5-log inactivation of Giardia cysts by chloramine (pH range 6 to 9, 15 ° C.): 750 mg/L-min
CT value for 2-log inactivation of Giardia cysts by chloramine (pH range 6 to 9, 15 ° C.): 1000 mg/L-min
CT value for 2.5-log inactivation of Giardia cysts by chloramine (pH range 6 to 9, 15 ° C.): 1250 mg/L-min
CT value for 3-log inactivation of Giardia cysts by chloramine (pH range 6 to 9, 15 ° C.): 1500 mg/L-min
CT value for 0.5-log inactivation of Giardia cysts by chloramine (pH range 6 to 9, 20 ° C.): 185 mg/L-min
CT value for 1-log inactivation of Giardia cysts by chloramine (pH range 6 to 9, 20 ° C.): 370 mg/L-min
CT value for 1.5-log inactivation of Giardia cysts by chloramine (pH range 6 to 9, 20 ° C.): 550 mg/L-min
CT value for 2-log inactivation of Giardia cysts by chloramine (pH range 6 to 9, 20 ° C.): 735 mg/L-min
CT value for 2.5-log inactivation of Giardia cysts by chloramine (pH range 6 to 9, 20 ° C.): 915 mg/L-min
CT value for 3-log inactivation of Giardia cysts by chloramine (pH range 6 to 9, 20 ° C.): 1100 mg/L-min
CT value for 0.5-log inactivation of Giardia cysts by chloramine (pH range 6 to 9, 25 ° C.): 125 mg/L-min
CT value for 1-log inactivation of Giardia cysts by chloramine (pH range 6 to 9, 25 ° C.): 250 mg/L-min
CT value for 1.5-log inactivation of Giardia cysts by chloramine (pH range 6 to 9, 25 ° C.): 375 mg/L-min
CT value for 2-log inactivation of Giardia cysts by chloramine (pH range 6 to 9, 25 ° C.): 500 mg/L-min
CT value for 2.5-log inactivation of Giardia cysts by chloramine (pH range 6 to 9, 25 ° C.): 625 mg/L-min
CT value for 3-log inactivation of Giardia cysts by chloramine (pH range 6 to 9, 25 ° C.): 750 mg/L-min
CT value for 0.5-log inactivation of Giardia cysts by chloramine (pH range 6 to 9, ≦1 ° C.): 635 mg/L-min
CT value for 1-log inactivation of Giardia cysts by chloramine (pH range 6 to 9, ≦1 ° C.): 1270 mg/L-min
CT value for 1.5-log inactivation of Giardia cysts by chloramine (pH range 6 to 9, ≦1 ° C.): 1900 mg/L-min
CT value for 2-log inactivation of Giardia cysts by chloramine (pH range 6 to 9, ≦1 ° C.): 2535 mg/L-min
CT value for 2.5-log inactivation of Giardia cysts by chloramine (pH range 6 to 9, ≦1 ° C.): 3170 mg/L-min
CT value for 3-log inactivation of Giardia cysts by chloramine (pH range 6 to 9, ≦1 ° C.): 3800 mg/L-min
